Results published in article PMC4464647, “ANO1 (TMEM16A) in pancreatic ductal adenocarcinoma (PDAC)” (Pflugers Archiv, 2014).
d = 2'-deoxy (DNA)

Key:
BxPC-3 cells [1] = experiment: BrdU incorporation cell proliferation assay; format: cell-based, human; conditions: BxPC-3, inhibitor 20 μM, 24 h
Description: (§1) To assess cell proliferation and apoptosis, cells were plated in duplicates on a 96-well plate and incubated in 100 μl of the cell line appropriate media described above. Cells were transfected with siRNA soon after complete attachment (approx. 3 h after seeding). Cells were treated with vehicle, 20 μM gemcitabine, 20 μM T16Ainh-A01, or 10 μM free NS3728 (see below) after culture in a humidified 37 °C and 5 % CO2 incubator overnight. BrdU incorporation was measured using Cell Proliferation ELISA, BrdU (chemiluminescent) (Roche Diagnostics A/S, Denmark) following the manufacturer’s instructions. Caspases 3, 6, and 7 activation was evaluated using Homogeneous Caspases Assay (fluorimetric) (Roche Diagnostics A/S, Denmark).
(§2) Fig. 7 VRAC, but not ANO1, regulates cellular proliferation. a Summary of BrdU incorporation in HPDE, Capan-1, AsPC-1, and BxPC-3 cells after various treatments as indicated. Cells were transfected shortly after complete attachment (approx. 3 h) and BrdU incorporation was assessed 36 h after transfection. To investigate effect of inhibitors, cells were incubated for 24 h with respective inhibitor. Values shown are relative to appropriate control. Data shown represents mean ± s.e.m. of n = 4–6 individual experiments. **p ≤ 0.01 and ***p ≤ 0.001 when compared with control

BxPC-3 cells [2] = experiment: Fura-2 measurement of free intracellular calcium, ATP stimulation; format: cell-based, human; conditions: for effect on basal [Ca2+]i: BxPC-3, inhibitor 20 μM
Description: (§3) HPDE and BxPC-3 cells were incubated with 2 μM Fura-2 AM (Sigma-Aldrich, Denmark) for 30 min at 37 °C. Cells were subsequently washed with Krebs solution containing (in mM) 150 NaCl, 6 KCl, 1.5 CaCl2, 1 MgCl2, 10 glucose, and 10 HEPES; pH was adjusted to 7.4 using NaOH. Coverslips were mounted on a recording chamber. In the beginning of the experiment, cells were perfused with Krebs solution at 4 ml/min until baseline was stable. […] Changes in [Ca^2+]i were measured by a TIRF iMIC microscope (TILL Photonics, Germany). Fura-2 AM loaded cells were illuminated at 340 nm for 80 ms and 380 nm for 80 ms at 1 s intervals using a TILL Polychrome monochromator. Five hundred-nanometer emission images were captured by an image-intensifying, charge-coupled device (CCD) camera (TILL Photonics, Germany) and digitized by an image processing system (TILL Photonics, Germany). The monochromator and CCD camera were controlled by LA Live Acquisition software, which was also used for image analysis. The [Ca^2+]i was presented as the Fura-2 ratio of the fluorescence signals obtained at 340/380 nm.
(§4) Fig. 8 Cl^− channel inhibitors alter ATP-induced Ca^2+ signals. Intracellular Ca^2+ measurements in FURA-2 loaded HPDE and BxPC-3 cells. a Representative single-cell traces of individual experiments. Different substances were applied as indicated. […] (n) = number of individual experiments; each containing between 5–45 single cells.***p ≤ 0.001 when compared to no inhibitor condition; ^## p ≤ 0.01 when compared with HPDE no inhibitor
(§5) Activation of CaCC requires an increase in [Ca^2+]i, which can be achieved by stimulation of receptors such as purinergic receptors. Therefore, we studied the effect of Cl^− channel inhibitors on changes in [Ca^2+]i induced by purinergic signaling. We chose HPDE cells with very low expression levels of ANO1 and the highly ANO1 overexpressing cell line BxPC-3 for investigation. Fura-2 loaded HPDE and BxPC-3 cells were stimulated with ATP (10 μM) (Fig. 8) or exposed to the inhibitor prior to stimulation. ATP stimulation caused a 0.46 ± 0.03 peak increase in the Fura-2 ratio in HPDE and 0.55 ± 0.02 in BxPC-3 cells. […] However, no effect of the inhibitor on basal Ca^2+ level was observed.

HPDE cells = experiment: as above; format: cell-based, human; conditions: for effect on basal [Ca2+]i: inhibitor 20 μM
Description: as §3, §4, §5

[3] = tested on: HPDE, Capan-1, AsPC-1, and BxPC-3 cells; experiment: BrdU incorporation cell proliferation assay, all tested cell lines; format: cell-based, human
Description: as §1, §2

[4] = tested on: bronchial epithelial cells; design: method as in Scudieri et al. [39]; conditions: ref Scudieri et al. [39], cited from earlier work

Compound | proliferation (BrdU incorporation) (BxPC-3 cells [1]) | effect on basal [Ca2+]i (BxPC-3 cells [2]) | effect on basal [Ca2+]i (HPDE cells) | proliferation (BrdU incorporation) ([3]; ANO1-overexpressing cancer cells, 20 μM, 24 h) | ATP-induced change in Fura-2 ratio after inhibitor (BxPC-3 cells [2]; BxPC-3, inhibitor 20 μM before ATP 10 μM) | ATP-induced change in Fura-2 ratio after inhibitor (HPDE cells; inhibitor 20 μM before ATP 10 μM) | inhibition of Ca2+-activated Cl− secretion ([4]; 10 μM) | UTP-induced Cl− secretion in short-circuit current recordings ([4]; cells prior exposed to 10 μM) | proliferation (BrdU incorporation) ([3]; siRNA 50 nM vs mock 5 nM, 36 h after transfection, any of the tested cell lines)
CC(C)(C)C1CCc2c(sc(NC(=O)c3ccco3)c2C(=O)O)C1 (stereo not drawn) [CaCCinh-A01, 6-(1,1-dimethylethyl)-2-[(2-furanylcarbonyl)amino]-4,5,6,7-tetrahydrobenzo[b]thiophene-3-carboxylic acid] | larger effect | reversible increase | reversible increase | – | – | – | – | – | –
CCc1c(C)nc(SCC(=O)Nc2nc(-c3ccc(OC)cc3)cs2)[nH]c1=O [T16Ainh-A01, 2-[(5-Ethyl-1,6-dihydro-4-methyl-6-oxo-2-pyrimidinyl)thio]-N-[4-(4-methoxyphenyl)-2-thiazolyl]acetamide] | slight, but non-significant decrease of proliferation | no effect | no effect | none of the ANO1-overexpressing cancer cells showed any significant decrease in proliferation | 0.42 ± 0.03 | 0.32 ± 0.03 | relatively weak inhibition | significantly attenuated | –
siRNA targeting ANO1: Predesigned siRNA oligo from Sigma-Aldrich, 5′-CCUUCAACGUCAGUGACUU[dT][dT]-3′, 5′-AAGUCACUGACGUUGAAGG[dT][dT]-3′ (RNA, 3' dTdT, backbone not given here) | – | – | – | – | – | – | – | – | did not cause any significant change in proliferation
